Laboratory results taken from PMC5727842, “Antioxidant and Antidiabetic Effects of Flavonoids: A Structure-Activity Relationship Based Study” (BioMed Research International, 2017).

Assays:
[1] = DPPH radical scavenging assay; details: 30 min, 517 nm, mean ± SEM (n = 3)
Experimental: Each sample's stock solution was diluted to final concentrations of 1000–0.4889 μg/mL in MeOH. A total of 1 mL of a 0.3 mM DPPH methanolic solution was added to 2.5 mL of sample solution of different concentrations and allowed to react at room temperature. After 30 min, the absorbance (Abs) values were measured at 517 nm with a microplate reader (Tecan NanoQuant Infinite M200, Switzerland) and converted into the percentage antioxidant activity using the following equation described previously: (1) % antioxidant activity=100−Abssample−Abssample blank/Abscontrol−Abscontrol blank×100. MeOH + compound solution was used as a blank, while DPPH solution plus MeOH was used as a negative control. The positive controls were DPPH solution plus 1 mM ascorbic acid. The IC50 values were calculated by linear regression of plots. The average percent of scavenging capacity was taken from three replicates.

[2] = ABTS+ radical scavenging assay; details: 734 nm, mean ± SEM (n = 3)
Experimental: An improved ABTS^+ radical decolorization assay was carried out involving direct production of the blue/green ABTS^+ chromophore through the reaction between ABTS and potassium persulfate. Addition of antioxidant to the preformed radical cation reduces it to ABTS to an extent on a time scale depending on the antioxidant activity, the concentration of the antioxidant, and the duration of the reaction. 1 ml ABTS was dissolved in water to make 7 mM concentration of the resultant solution. […] The resultant reaction mixture was allowed to stand in the dark at room temperature for 12–16 h before being used. The ABTS^+ radical solution was diluted with MeOH to an absorbance of 0.7 (±0.02) at 734 nm. Then, 100 μl of sample at various concentrations (1000–0.4889 μg/mL) was mixed with 100 μL of diluted ABTS^+ radical. Each concentration was analyzed in triplicate and the percentage decrease of absorbance at 734 nm with a microplate reader (Tecan NanoQuant Infinite M200, Switzerland) was calculated for each point and the antioxidant capacity of the tested compounds was expressed as percent inhibition (%). The radical scavenging activity of the compounds was measured according to the following equation [29]:(2) % inhibition=Acontrol−Asample/Acontrol×100. IC50 values were calculated by linear regression of plots, and the average percent of scavenging capacity was taken from three replicates. Trolox was used as a standard in comparison for the determination of the antioxidant activity of the flavonoids.

Structure (SMILES)	IC50 DPPH [1]	IC50 ABTS+ [2]
O=c1cc(-c2ccc(O)c(O)c2)oc2c(O)c(O)cc(O)c12 [Hypolaetin, 3′,4′,5,7,8-Pentahydroxyflavone]	3.69 ± 0.11^Ha µg/ml	0.80 ± 0.03^FG µg/ml
COc1cc(O)c2c(=O)cc(-c3ccccc3)oc2c1 [Techtochrysin, 5-Hydroxy-7-methoxyflavone]	>100^B µg/ml	45.59 ± 4.75^E µg/ml
